From patent publication US20070037194A1, “Allelic variation in the serotonin transporter (SERT) as an indicator of autism” (priority 2005, published 2007)

Experiments:
Gly56 SERT = type: cell-based, human; details: coincubation with PKG inhibitor H8 at 10 μM; data not shown
Protocol: (§1) Homozygous Ala56 cells (10^6/tube) were preincubated for various times at 37° C. with 10 μM 8BrcGMP prior to [^3H]5-HT transport assays.
(§2) Functional Analysis of Gly56Ala Activity and Regulation. EBV-transformed lymphocyte cell lines from AGRE or Tufts/Vanderbilt autism families carrying either the Gly56 or 56Ala alleles were obtained from the NIMH Human Genetics Initiative Repository (www.nimhgenetics.org/) at Rutgers University. […] Lymphocytes were pelleted at 1500 rpm, 5 min and washed with KRH assay buffer. A total of 1×10^6 cells in triplicate were pre-warmed (37° C.) in a shaking water bath (10 min) in 12×75 polypropylene tubes in KRH buffer containing 100 μM pargyline and 100 μM ascorbic acid. After a 5-min incubation with [^3H]5-HT (20 nM) at 37° C., uptake assays were terminated by immersion on ice, and uptake in pelleted, 1% SDS-extracted cells quantitated by scintillation spectrometry. Specific 5-HT uptake was determined by subtracting the amount of [^3H]5-HT accumulated in the presence of 10 μM paroxetine (SmithKline Beecham). [^3H]L-glutamate transport assays were conducted as described for [^3H]5-HT except using 100 nM substrate and defining nonspecific uptake with parallel accumulation acquired at 4° C.

SERT Ala56 = type: cell-based, human; details: homozygous Ala56 cells preincubated for various times at 37° C. with 10 μM 8BrcGMP
Protocol: as §1, §2

Structure (SMILES) | block of 8BrcGMP effects on Gly56 SERT (Gly56 SERT) | sensitivity of SERT Ala56 [3H]5-HT transport to 8BrcGMP (SERT Ala56)
CNCCNS(=O)(=O)c1cccc2cnccc12 [H8] | completely blocked | –
Nc1nc2c(nc(Br)n2[C@@H]2O[C@@H]3COP(=O)(O)O[C@H]3[C@H]2O)c(=O)[nH]1 [8BrcGMP] | – | lacks sensitivity
